# Laboratory results from patent publication US12433908B2, “Use of nicotinamide riboside, nicotinic acid riboside, and nicotinamide mononucleotide, reduced nicotinyl compounds, and nicotinoyl compound derivatives in infant formula for healthy development” (ChromaDex, Inc., priority 2016, dated 2025).
# “Also recorded” adds a separate entry of the source.
# Columns and labels:
# [1] = Stability of NR in liquid (water, milk); type: physicochemical
# [2] = Fecal SCFA analysis by gas chromatography in piglets given NR solution; type: in vivo, piglets (Yorkshire/Hampshire crossbred)
# Source text: Sixteen (n=16) Yorkshire/Hampshire crossbred piglets were obtained from the University of California, Davis Swine Teaching and Research Center and received on lactation day (“LD”) 14. Prior to arrive, the piglets were processed by the suppler between 1-3 days of age by administration of iron and an antibiotic ([…] for swine) as is common practice at the University of California, Davis Swine Facility. It is not common practice at the University of California, Davis Swine Facility to give a second dose of iron and antibiotics unless it becomes necessary. The piglets were from two litters (litters 15 and 17), weaned at 17 days of age, and randomly placed into one of two groups balanced for litter, sex, and weight. The animals were not acclimated to the facility at arrival and were subsequently acclimated to the test diet administration system. The piglets were weaned into a temperature-controlled room (approximately 27-29° C.) that contained 10 adjacent pens. The piglets were group-housed in the nursery room at the Swine Facility, which is an enclosed room with access restricted to trained personnel. The two groups were separated by one pen containing piglets of similar age. Each morning enough nicotinamide riboside (NR, I) in water solution was prepared for that day's dose administration according to the dose preparation protocol. At least 5 mL of prepared dose was reserved and immediately frozen after preparation each day for analysis of nicotinamide riboside (NR, I) for the purpose of confirming stability of the dose material. The doses were stored at refrigeration temperature while not in use. Nicotinamide riboside (NR, I) was dosed once per day in the morning and at the same time each day. Piglets in the control group received the same volume of plain water and were dosed on the same schedule. Starting on Day 1, animals in the nicotinamide riboside (NR, I) group were dosed once daily (in the morning) with 277 mg nicotinamide riboside (NR, I) per pig resuspended in water for seven days. After one week, animals were dosed once daily with 342 mg nicotinamide riboside (NR, I) per pig delivered in 2.5 mL for seven days. For Days 1 and 2, the nicotinamide riboside (NR, I) solution was prepared by resuspending 2770 mg nicotinamide riboside (NR, I) in 50 mL water, and 5 mL of this solution was delivered to each pig by squirting it into the back of the mouth using a 10 mL syringe with a piece of tubing attached to the end. To reduce the volume to more efficiently deliver the nicotinamide riboside (NR, I) solution, the 2770 mg was resuspended in 25 mL water and 2.5 mL of the solution was squirted into the back of the mouth of each pig using a 3 mL syringe for Days 3-7. For Days 8-14, 3420 mg nicotinamide riboside (NR, I) was resuspended in 25 mL water and 2.5 mL of this solution was delivered to each pig. Each day prior to dosing, 2.5 mL of the nicotinamide riboside (NR, I) (5 mL on Days 1 and 2) were placed into a separate tube and frozen. Fresh fecal samples were collected from each pig on Days 1 (baseline), 8 (Wk 1), and 14 (Wk 2), and frozen. When a freshly voided sample could not be obtained, the rectum was swabbed. A total of 100 mg of feces from each pig was used for SCFA analysis using gas chromatography with known standards for acetic acid, propionic acid, isobutyric acid, butyric acid, isovaleric acid, and valeric acid. Samples were extracted with 25% metaphosphoric acid and each extraction run in triplicate on a GC equipped with the PeakSimple Chromatography Data System. Data was analyzed using a one-way ANoVA or the non-parametric Kruskal-Wallis test if the distribution of values was not Gaussian. A conservative analysis of the data is presented below (animals that had to be swabbed to get a fecal sample) in Table 3 and an analysis of the data including the swab samples is in Table 8. The trends are similar, the p-values are not.
# [3] = 1 week of daily administration of 277 mg of NR in water
# [4] = Wk 1, 277 mg/pig once daily oral
# [5] = including the swab samples, Baseline, before dosing
# [6] = including the swab samples, Wk 1, 277 mg/pig once daily oral
# [7] = including the swab samples, third column group, headed 'Wk 1' again
# [8] = without swab samples, Baseline, before dosing
# [9] = without swab samples, Wk 1, 277 mg/pig once daily oral
# [10] = without swab samples, third column group, headed 'Wk 1' again
structure (smiles),measurement,setting,value
"NC(=O)c1ccc[n+]([C@@H]2O[C@H](CO)[C@@H](O)[C@H]2O)c1 [NR, Nicotinamide riboside]",stability in milk,[1]; cow's milk and human breast milk,stable in milk
same,stability in water,[1]; in water,unstable over time
same,Fecal SCFA levels,[2]; [3],increased
same,"fecal acetic acid (C2), propionic acid (C3), and butyric acid (C4)",[2]; [3],marked increases
same,"Fecal SCFA Acetic Acid, Δ vs. baseline (NR)",[2]; [4],15.1 ppm
same,"Fecal SCFA Butyric Acid, Δ vs. baseline (NR)",[2]; [4],26.3 ppm
same,"Fecal SCFA Isobutyric Acid, Δ vs. baseline (NR)",[2]; [4],−3.4 ppm
same,"Fecal SCFA Isovaleric Acid, Δ vs. baseline (NR)",[2]; [4],−4.3 ppm
same,"Fecal SCFA Propionic Acid, Δ vs. baseline (NR)",[2]; [4],35.9 ppm
same,"Fecal SCFA Valeric Acid, Δ vs. baseline (NR)",[2]; [4],5.4 ppm
same,"Fecal SCFA Acetic Acid, Significant change from baseline within group",[2]; Wk 1 vs. baseline,No
same,"Fecal SCFA Butyric Acid, Significant change from baseline within group",[2]; Wk 1 vs. baseline,"statistically significant; also recorded: Yes, P < 0.05"
same,"Fecal SCFA Isobutyric Acid, Significant change from baseline within group",[2]; Wk 1 vs. baseline,No
same,"Fecal SCFA Isovaleric Acid, Significant change from baseline within group",[2]; Wk 1 vs. baseline,No
same,"Fecal SCFA Propionic Acid, Significant change from baseline within group",[2]; Wk 1 vs. baseline,"statistically significant; also recorded: Yes, P < 0.05"
same,"Fecal SCFA Valeric Acid, Significant change from baseline within group",[2]; Wk 1 vs. baseline,No
same,Fecal SCFA Isobutyric Acid,[2]; including the swab samples,7.9 ± 10.9 ppm
same,Fecal SCFA Propionic Acid,[2]; including the swab samples,51.5 ± 45.7 ppm
same,Fecal SCFA Valeric Acid,[2]; including the swab samples,7.8 ± 11.3 ppm
same,Fecal SCFA Acetic Acid,[2]; [5],43.5 ± 23.5 ppm
same,Fecal SCFA Butyric Acid,[2]; [5],11.1 ± 18.4 ppm
same,Fecal SCFA Isobutyric Acid,[2]; [5],9.5 ± 9.3 ppm
same,Fecal SCFA Isovaleric Acid,[2]; [5],16.8 ± 14.0 ppm
same,Fecal SCFA Propionic Acid,[2]; [5],15.3 ± 10.6 ppm
same,Fecal SCFA Valeric Acid,[2]; [5],2.4 ± 6.9 ppm
same,Fecal SCFA Acetic Acid,[2]; [6],58.6 ± 14.5 ppm
same,Fecal SCFA Butyric Acid,[2]; [6],37.4 ± 16.8 ppm
same,Fecal SCFA Isobutyric Acid,[2]; [6],6.1 ± 6.4 ppm
same,Fecal SCFA Isovaleric Acid,[2]; [6],12.5 ± 9.1 ppm
same,Fecal SCFA Propionic Acid,[2]; [6],51.2 ± 13.2 ppm
same,Fecal SCFA Valeric Acid,[2]; [6],7.8 ± 6.6 ppm
same,Fecal SCFA Acetic Acid,[2]; [7],70.1 ± 62.6 ppm
same,Fecal SCFA Butyric Acid,[2]; [7],41.2 ± 34.6 ppm
same,Fecal SCFA Isovaleric Acid,[2]; [7],11.3 ± 15.7 ppm
same,Fecal SCFA Isobutyric Acid,[2]; without swab samples,15.9 ± 10.6 ppm
same,Fecal SCFA Propionic Acid,[2]; without swab samples,90.0 ± 30.4 ppm
same,Fecal SCFA Valeric Acid,[2]; without swab samples,15.7 ± 11.5 ppm
same,Fecal SCFA Acetic Acid,[2]; [8],43.5 ± 23.5 ppm
same,Fecal SCFA Butyric Acid,[2]; [8],11.1 ± 18.4 ppm
same,Fecal SCFA Isobutyric Acid,[2]; [8],9.5 ± 9.3 ppm
same,Fecal SCFA Isovaleric Acid,[2]; [8],16.8 ± 14.0 ppm
same,Fecal SCFA Propionic Acid,[2]; [8],15.3 ± 10.6 ppm
same,Fecal SCFA Valeric Acid,[2]; [8],2.4 ± 6.9 ppm
same,Fecal SCFA Acetic Acid,[2]; [9],55.78 ± 13.4 ppm
same,Fecal SCFA Butyric Acid,[2]; [9],36.9 ± 18.3 ppm
same,Fecal SCFA Isobutyric Acid,[2]; [9],5.8 ± 6.5 ppm
same,Fecal SCFA Isovaleric Acid,[2]; [9],11.9 ± 9.8 ppm
same,Fecal SCFA Propionic Acid,[2]; [9],49.3 ± 13.3 ppm
same,Fecal SCFA Valeric Acid,[2]; [9],6.7 ± 6.7 ppm
same,Fecal SCFA Acetic Acid,[2]; [10],118.7 ± 55.01 ppm
same,Fecal SCFA Butyric Acid,[2]; [10],70.8 ± 21.9 ppm
same,Fecal SCFA Isovaleric Acid,[2]; [10],22.5 ± 15.5 ppm
